The data set concerns human LPA gene (Genbank number: NM_005577.4). The data set is described as follows: Inhibitory activity against LPA mRNA, psiCHECK-2 dual-luciferase reporter vector in Huh7 cells. In kind it is cell-based. The settings on record: Huh7 cells transfected with LPA_psiCHECK-2 plasmid, RNAiMAX transfection. Here is the method:
A stock solution was prepared by dissolving in PBS and stored at -20 °C.
The human LPA gene (Genbank number: NM_005577.4) was cloned into the psiCHECK™-2 vector.
Huh7 cells were cultured in DMEM (Gibco-11995-065, 500 mL) medium, supplemented with FBS (ExCellBio-FSP500, 57 mL), Penicillin-Streptomycin solution (Hyclone-SV30010, 5.7 mL), GlutaMAX™ (Gibco-35050-061, 5.7 mL) and Non-Essential Amino Acids Solution (Gibco-11140050, 5.7 mL).
On Day 1, a method for transfection of the LPA_PSICHECK (TM)-2 plasmid is briefly described as follows: Huh7 cells were washed with DPBS, followed by digestion with 0.05% trypsin, gently pipetted into single cells in DMEM containing 10% FBS, and counted. Plasmid DNA was transferred into Huh7 cells using Fugene HD. The transfected cells were seeded into 96-well plates at a density of 10,000 cells per well, with 100 µL culture medium per well. The cells were incubated overnight in a 5% CO2 incubator at 37 °C.
On Day 2, the test compounds were diluted serially with PBS to 3 concentrations.
RNAiMAX transfection reagent was prepared by blending homogeneously with Opti-MEM at a ratio of RNAiMAX: Opti-MEM=3:47 in a 15 mL centrifuge tube as needed. The compounds were mixed with the RNAiMAX/Opti-MEM (1:1) and incubated for 15 min. The compound-containing RNAiMAX/Opti-MEM mixture was diluted 10-fold with fresh medium and blended homogeneously.
The medium in each well was aspirated, and then 100 µL of the fresh compound-containing medium was added, and then incubated in a 5% CO2, 37 °C incubator.
Experimental procedures refer to DUAL-GLO® Dual Luciferase Assay System instructions, briefly described as follows: Taking out the cells from the incubator, aspirating and discarding the supernatant, adding 75µL fresh culture medium and 75µL detection reagent, shaking for 10 minutes in the dark, and after the cells had been fully lysed, transfering100µL sample to an opaque whiteboard for detecting the Firefly luminescence signal; adding 50 µL Dual-Glo®Stop & Glo® test reagent to each well and detecting the Renilla luciferase signal after shaking for 10 minutes in the dark. The ratio of the reporter signal to the internal control reporter signal was calculated for each well.
[formula] % Inhibition = (1-Sampleratio/RNAiMAXcontrolratio) × 100% [formula]
(A reporter such as luciferase makes a cellular process visible.)
Turning to “Z6: siRNA conjugate: sense SEQ ID NO:27, ligand D08 at 3' end of sense strand, antisense SEQ ID NO:57 (sense CCCTTATTGTTATACG; antisense TCGTANAACAATAAGGGGCTGTT; ligand D08 at sense 3' end; listed as RNA; modified_base 1..2: mod_base = OTHER; note = 2'-O-methylcytidine; modified_base 3: mod_base = OTHER; modified_base 4: mod_base = OTHER; note = 2'-O-methyluridine; modified_base 5: mod_base = OTHER; note = 2'-fluorou; modified_base 1: mod_base = OTHER; note = E-type vinylphosphonate-modified 2'-O-methyluridine; modified_base 2: mod_base = OTHER; note = 2'-fluorocytidine; note = 2'-O-methylguanosine; modified_base 4: mo)”, a half-maximal effect (EC50) was put at 0.42 nM.

On to “Z13: siRNA conjugate: sense SEQ ID NO:27, ligand D08 at 3' end of sense strand, antisense SEQ ID NO:61 (sense CCCTTATTGTTATACG; antisense ATCCCTCGTANAACAATAAGGGGCTGTT; 2'-OMe/2'-F modified, ligand at sense 3' end, full pattern not given here)”, for which the EC50 (as a rule, the concentration at which the effect is half-maximal) was found to be 0.42 nM. This counts as sub-nanomolar. The same measure for “Z36: siRNA conjugate: sense SEQ ID NO:50, ligand D18 at 3' end of sense strand, antisense SEQ ID NO:75 (sense CCTGCCAAGCTTGGTCATCTA; antisense TAGATGNCCAAGCTTGGCNGGTT; ligand D18 at sense 3' end; listed as RNA; modified_base 1..2: mod_base = OTHER; note = 2'-O-methylcytidine; modified_base 3: mod_base = OTHER; note = 2'-O-methyluridine; modified_base 4: mod_base = OTHER; note = 2'-O-methylguanosine; modified_base 5..6: mod_base = OTHER; note = 2'-O-m; modified_base 1: mod_base = OTHER; note = E-type vinylphosphonate-modified 2'-O-methyluridine; modified_base 2: mod_base = OTHER; note = 2'-fluoroadenosine; modified_base 4: m)”: 0.23 nM.

Take “Z8: siRNA conjugate: sense SEQ ID NO:32, ligand D08 at 3' end of sense strand, antisense SEQ ID NO:56 (sense CCCTTATTGTTATACG; antisense ATCCCTCGTANAACAATAAGGGGCTGTT; 2'-OMe/2'-F modified, ligand at sense 3' end, full pattern not given here)”: the midpoint of the response, the EC50, lay at 0.81 nM. Next, “Z7: siRNA conjugate: sense SEQ ID NO:27, ligand D08 at 3' end of sense strand, antisense SEQ ID NO:58 (sense CCCTTATTGTTATACG; antisense TCGTANAACAATAAGGGGCTGTT; ligand D08 at sense 3' end; listed as RNA; modified_base 1..2: mod_base = OTHER; note = 2'-O-methylcytidine; modified_base 3: mod_base = OTHER; modified_base 4: mod_base = OTHER; note = 2'-O-methyluridine; modified_base 5: mod_base = OTHER; note = 2'-fluorou; modified_base 1: mod_base = OTHER; modified_base 2: mod_base = OTHER; note = 2'-fluorocytidine; note = 2'-O-methylguanosine)”: 2.41 nM; “Z2: siRNA conjugate: sense SEQ ID NO:28, ligand D08 at 3' end of sense strand, antisense SEQ ID NO:56 (sense CCCCTTATTGTTATAC; antisense ATCCCTCGTANAACAATAAGGGGCTGTT; 2'-OMe/2'-F modified, ligand at sense 3' end, full pattern not given here)”: 0.48 nM.
